Measured values published in US20130245038A1, “Method For Selecting Or Identifying A Subject For V1B Antagonist Therapy” (ABBVIE DEUTSCHLAND GMBH & CO. KG, priority 2012, published 2013).

How the values were obtained:
Assay type in all cases: in vivo, human
subjects with MDD [1] = assay: Randomized, placebo-controlled, double-blind clinical study in subjects with MDD: MASQ and HAM-D symptom scores
Excerpt: High AVP was defined as ≧8.6 pg/mL, in a sample drawn at approximately 8 am or 2 pm on the day prior to initiation of study drug administration. Least squares means and standard errors are shown from analyses of covariance that included Day −1 (baseline) score as a covariate and factors for investigator, treatment, AVP class and treatment * AVP class interaction.
(§1) A randomized, placebo-controlled, double-blind clinical study of the safety and pharmacodynamics of Compound A in subjects with MDD was conducted. Fifty-one subjects with a M.I.N.I.-confirmed primary diagnosis of MDD and a clinical global impression of severity of 3 or 4 were randomized to 800 mg Compound A QD (n=31) or matching placebo (n=20) for 7 days. Subjects were confined at clinical sites from two days prior to initial study drug administration until 24 hours after the last dose of study drug. HPA axis function was thoroughly assessed prior to study drug administration and on the 6th and 7th dosing days. A panel of genetic variants related to HPA axis function was assayed. One stated aim of this study was to define a means to identify MDD subjects more likely to respond to Compound A, prior to Compound A administration.
AVP was the only parameter initially analyzed as a potential predictor of Compound A response as the daytime plasma level prior to study drug administration, measured at any of three times of day (approximately 8 am, 2 pm, and 10 pm), was the most prominent difference of baseline HPA axis function between MDD subjects in this study and HNV subjects of other studies.
Receiver operator characteristic (ROC) analysis was used. In a first ROC, the dependent variable was treatment and the independent variables were the MASQ subscales. This ROC aimed to define MASQ scale score changes that were characteristic of subjects who received Compound A and not characteristic of those who received placebo. Such score changes can be thought to distinguish Compound A responders from Compound A non-responders. Of the five MASQ subscales, General Distress Mixed (GDM) and Depressive (GDD) subscales differentiated Compound A from placebo subjects. […] Similar results were obtained when the dependent variables were analyzed as percent, rather than absolute, change from baseline.
The interaction of AVP (high v normal) and treatment (Compound A v placebo) is shown below. The dependent variables were the MASQ scale scores and the Hamilton Depression Rating Scale (HAM-D)—version score on Day 7. The corresponding scale score on Day −2 was a covariate in each model. Each model included factors for investigator, AVP, treatment and the interaction of AVP and treatment. […] MASQ total scores were normalized to a 1 to 5 scale.

[2] = test system: physiological response to a stressor (CRH challenge); assay: Cortisol reactivity to a CRH challenge in MDD subjects of the clinical study; settings: maximum post-CRH serum cortisol divided by pre-CRH serum cortisol, Day 7
Excerpt: as §1, with “High AVP was defined as ≧8.6 pg/mL, in a sample drawn at approximately 8 am or 2 pm on the day prior to initiation of study drug administration. The analysis of covariance model for Day 7 cortisol reactivity included Day −1 (baseline) cortisol reactivity as a covariate and factors for investigator, treatment, AVP class and treatment * AVP class interaction. A randomized,” for “A randomized,”, “A administration. […]” for “A administration.”

HPA axis activity [3] = assay: HPA axis function measures (plasma ACTH, serum, saliva and urine cortisol, urine glucocorticoids) in MDD subjects of the clinical study; settings: for Reduction of urine glucocorticoids compared to placebo: Day 6 to 7
Procedure: Higher urine glucocortioids was defined as ≧3.44 mg per mg creatinine, in a 24-hour collection on the day prior to initiation of study drug administration. The analysis of covariance model for Day 6 to 7 urine glucocorticoids included Day −2 to −1 (baseline) urine glucocorticoids as a covariate and factors for investigator, treatment and treatment * baseline urine glucocorticoids interaction.
as §1
In a ROC analysis, the dependent variable was responder status based on a cutoff on GDM of −0.53. The independent variable was baseline amount of urine glucocorticoids (the sum of cortisol, cortisone, alpha-tetrahydrocortisol, beta-tetrahydrocortisol and tetrahydrocortisone) collected during a 24-hour interval, divided by the amount of creatinine in the same urine collection. The optimal cutoff was 3.44 mg glucocorticoids per mg creatinine. This provided a sensitivity of 58% (14/24 Compound A responders included) and specificity of 67% (4 of 6 Compound A non-responders excluded). One Compound A subject was not included in this analysis due to missing urine glucocorticoid data.

HPA axis activity [4] = assay: Urine glucocorticoids in healthy adults who received Compound A or placebo
Excerpt: Higher urine glucocorticoids subjects are those in whom Compound A effects larger decreases of tonic HPA axis activity, and thus an appropriate population for treatment of MDD using a V1B antagonist.

subjects with MDD [5] = assay: Randomized, placebo-controlled, double-blind clinical study in subjects with MDD: MASQ and HAM-D symptom scores; remark: listed apart in the source
[6] = Compound A 800 mg QD for 7 days v placebo, MDD subjects
[7] = ROC, dependent variable treatment (Compound A 800 mg QD, n=31, v placebo, n=20), MASQ GDM score change, cutoff X −0.53
[8] = high AVP ≧8.6 pg/mL, Compound A 800 mg QD v placebo
[9] = ROC, dependent variable treatment (Compound A 800 mg QD, n=31, v placebo, n=20), MASQ GDD score change, cutoff X −0.58

In the case of CCOc1ncccc1[C@]1(NC(=O)N2CCN(C3CCN(C)CC3)CC2)C(=O)N(S(=O)(=O)c2ccc(OC)cc2OC)c2ccc(C#N)cc21 [Compound A], the “ANCOVA factor for treatment on MASQ GDM and GDD subscales” value (subjects with MDD [1]; [6]) is reported as “statistically significant factors for treatment”, the “False Negative” value (subjects with MDD [1]; [7]) is reported as 7 and the “True Positive” value (subjects with MDD [1]; [7]) is reported as 24. The “Interaction of AVP (high v normal) and treatment, MASQ GDD score on Day 7” value (subjects with MDD [1]; [8]) was “statistically significant”, the “Interaction of AVP (high v normal) and treatment, MASQ GDM, AD and 7-item HAM-D scores on Day 7” value (subjects with MDD [1]; [8]) was “numerically favorable trends” and the “Physiological response to a stressor (CRH challenge) compared to placebo” value ([2]; high AVP MDD subjects) was “lower physiological response to a stressor”. For the same molecule, the “Physiological response to a stressor (CRH challenge) compared to placebo” value ([2]; normal AVP MDD subjects) was “limited or no difference of stress response”, the “Neuroendocrine effects on plasma ACTH, serum cortisol, urine cortisol and total glucocorticoids, high AVP v normal AVP subjects” value (HPA axis activity [3]; MDD subjects, comparison of the two AVP groups) was “did not differ” and the “Reduction of urine glucocorticoids compared to placebo” value (HPA axis activity [3]; higher urine glucocorticoids MDD subjects (≧3.44 mg per mg creatinine at baseline)) was “larger reductions of urine glucocorticoids”. The “Reduction of urine glucocorticoids compared to placebo” value (HPA axis activity [3]; lower urine glucocorticoids MDD subjects) was “limited or no difference of reduction of urine glucocorticoids”, the “Relationship of baseline urine glucocorticoids and reduction of urine glucocorticoids compared to placebo” value (HPA axis activity [4]) was “The same relationship has been observed” and the “ANCOVA factor for treatment on MASQ AD, AA and GDA subscales” value (subjects with MDD [5]; [6]) was “not”. The “False Negative” value (subjects with MDD [5]; [9]) was 3, the “True Positive” value (subjects with MDD [5]; [9]) was 28 and the “Interaction of urine glucocorticoids divided by creatinine (higher v lower) and treatment, MASQ GDM, GDD, GDA, AA and 17- and 7-item HAM-D” value (subjects with MDD [5]; higher ≧3.44 mg per mg creatinine, 24-hour collection) was “numerically favorable trends”. The “Interaction of urine glucocorticoids divided by creatinine (higher v lower) and treatment, MASQ and HAM-D scores on Day 7” value (subjects with MDD [5]; higher ≧3.44 mg per mg creatinine, 24-hour collection, all dependent variables) was “not statistically significant”, the “Symptom changes on MASQ and HAM-D” value (subjects with MDD [5]; subset of subjects distinguished by AVP, copeptin and rs7088418/rs17169521 genotypes) was “more favorable symptom changes” and the “Symptom changes on MASQ and HAM-D” value (subjects with MDD [5]; subset of subjects distinguished by NR3C1 genotypes (rs10482672; similar for rs17100236)) was “unfavorable symptom changes”.
